*1 amine or outer side, *2 acyl side, *3 side chain or, on linkers, in order; H or OH if unused. Where a SMILES comes first, the peptide text is derived from it. Bridges are numbered along the chain shown (N, C = ends). [ ]: non-standard residue; d: D form. The star is where a group is joined. Trp(1-CH2COOH) = N[C@@H](Cc1cn(CC(=O)O)c2ccccc12)C(=O)O; Phe(4-COOH) = N[C@@H](Cc1ccc(C(=O)O)cc1)C(=O)O; Bip = N[C@@H](Cc1ccc(-c2ccccc2)cc1)C(=O)O; Phe(3-CN) = N#Cc1cccc(C[C@H](N)C(=O)O)c1; Phe(3-Cl) = N[C@@H](Cc1cccc(Cl)c1)C(=O)O; Phe(4-CN) = N#Cc1ccc(C[C@H](N)C(=O)O)cc1; Phe(4-NH2) = Nc1ccc(C[C@H](N)C(=O)O)cc1; Phe(3-Me) = Cc1cccc(C[C@H](N)C(=O)O)c1; Phe(4-Me) = Cc1ccc(C[C@H](N)C(=O)O)cc1; Phe(2-Me) = Cc1ccccc1C[C@H](N)C(=O)O; X2 = CC(C)=C[C@H](N[*:1])C(=O)[*:2]; Val(3-OH) = CC(C)(O)[C@H](N)C(=O)O; 3Pal = N[C@@H](Cc1cccnc1)C(=O)O; Aad = N[C@@H](CCCC(=O)O)C(=O)O; Cha = N[C@@H](CC1CCCCC1)C(=O)O; Chg = N[C@H](C(=O)O)C1CCCCC1; Carboxymethyl = O=C(O)C*; NMeA = CN[C@@H](C)C(=O)O; Aun = NCCCCCCCCCCC(=O)O; Dab = NCC[C@H](N)C(=O)O
molecular target: T1, PD-1/PD-L1 interaction (PE-labeled human PD-L1-Ig binding to Jurkat cell line over-expressing human PD-1) (Homo sapiens, UniProt Q15116); experiment: Jurkat-PD-1 Cell Binding High-Content Screening Assay (CBA); conditions: Jurkat-hPD-1 cells, PE-labeled PD-L1-Ig 20 nM final; read-out: Jurkat HPD1 PDL1 IC50
T1 construct: expressed in transfected cells; host or cells: Jurkat
T1 sequence (Q15116 25-288): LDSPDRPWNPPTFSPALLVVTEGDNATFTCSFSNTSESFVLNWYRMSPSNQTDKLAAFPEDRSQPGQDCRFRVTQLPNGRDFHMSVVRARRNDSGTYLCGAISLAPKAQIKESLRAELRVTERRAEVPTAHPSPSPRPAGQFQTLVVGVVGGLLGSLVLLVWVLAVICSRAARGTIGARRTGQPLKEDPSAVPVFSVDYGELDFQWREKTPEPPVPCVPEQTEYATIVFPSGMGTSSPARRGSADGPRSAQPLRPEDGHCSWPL
Outline: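 In this imaging assay, cells in 10% FCS medium see compound for 2 h at 37 °C and then labeled ligand at 20 nM final for 1 h. Paraformaldehyde fixation, Hoechst 33342 staining and dPBS washes precede image capture.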

Row | SMILES | IC50 [nM]
1 | Cc1cccc(C[C@@H]2NC(=O)[C@H](CC(=O)O)NC(=O)[C@H](Cc3ccc(C(=O)O)cc3)NC(=O)[C@H](CCN)NC(=O)CSC[C@@H](C(=O)N[C@@H](CCN)C(=O)NCCCCCCCCCCC(=O)O)NC(=O)[C@H](CO)NC(=O)[C@H](C(C)(C)O)NC(=O)[C@H](CC3CCCCC3)NC(=O)[C@H](CCN)NC(=O)[C@@H](CC(C)C)NC(=O)[C@H](C)N(C)C(=O)[C@H](Cc3ccc(OCC(=O)O)cc3)NC(=O)[C@H](Cc3ccc(-c4ccccc4)cc3)NC(=O)[C@H](Cc3ccccc3C)NC2=O)c1 [Example 1296] ({CH2CO}-[Dab][Phe(4-COOH)]D[Phe(3-Me)][Phe(2-Me)][Bip]Y(Carboxymethyl)[NMeA][dL][Dab][Cha][Val(3-OH)]SC[Dab][Aun]-OH; thioether N-14) | 48.7
2 | Cc1cccc(C[C@@H]2NC(=O)[C@H](CC(=O)O)NC(=O)[C@H](Cc3ccc(C(=O)O)cc3)NC(=O)[C@H](CCN)NC(=O)CSC[C@@H](C(=O)N[C@@H](CCN)C(=O)NCCCCCCCCCCC(=O)O)NC(=O)[C@H](CO)NC(=O)[C@H](C(C)(C)O)NC(=O)[C@H](CC3CCCCC3)NC(=O)[C@H](CCN)NC(=O)[C@@H](CC(C)C)NC(=O)[C@H](C)N(C)C(=O)[C@H](Cc3ccc(OCC(=O)O)cc3)NC(=O)[C@H](Cc3ccc(-c4ccccc4)cc3)NC(=O)[C@H](Cc3cccc(Cl)c3)NC2=O)c1 [Example 1297] ({CH2CO}-[Dab][Phe(4-COOH)]D[Phe(3-Me)][Phe(3-Cl)][Bip]Y(Carboxymethyl)[NMeA][dL][Dab][Cha][Val(3-OH)]SC[Dab][Aun]-OH; thioether N-14) | 33.3
3 | Cc1cccc(C[C@@H]2NC(=O)[C@H](CC(=O)O)NC(=O)[C@H](Cc3ccc(C(=O)O)cc3)NC(=O)[C@H](CCN)NC(=O)CSC[C@@H](C(=O)N[C@@H](CCN)C(=O)NCCCCCCCCCCC(=O)O)NC(=O)[C@H](CO)NC(=O)[C@H](C(C)(C)O)NC(=O)[C@H](CC3CCCCC3)NC(=O)[C@H](CCN)NC(=O)[C@@H](CC(C)C)NC(=O)[C@H](C)N(C)C(=O)[C@H](Cc3ccc(OCC(=O)O)cc3)NC(=O)[C@H](Cc3ccc(-c4ccccc4)cc3)NC(=O)[C@H](CCCC(=O)O)NC2=O)c1 [Example 1298] ({CH2CO}-[Dab][Phe(4-COOH)]D[Phe(3-Me)][Aad][Bip]Y(Carboxymethyl)[NMeA][dL][Dab][Cha][Val(3-OH)]SC[Dab][Aun]-OH; thioether N-14) | 16.4
4 | Cc1cccc(C[C@@H]2NC(=O)[C@H](CC(=O)O)NC(=O)[C@H](Cc3ccc(C(=O)O)cc3)NC(=O)[C@H](CCN)NC(=O)CSC[C@@H](C(=O)N[C@@H](CCN)C(=O)NCCCCCCCCCCC(=O)O)NC(=O)[C@H](CO)NC(=O)[C@H](C(C)(C)O)NC(=O)[C@H](CC3CCCCC3)NC(=O)[C@H](CCN)NC(=O)[C@@H](CC(C)C)NC(=O)[C@H](C)N(C)C(=O)[C@H](Cc3ccc(OCC(=O)O)cc3)NC(=O)[C@H](Cc3ccc(-c4ccccc4)cc3)NC(=O)[C@H](Cc3ccc(C#N)cc3)NC2=O)c1 [Example 1300] ({CH2CO}-[Dab][Phe(4-COOH)]D[Phe(3-Me)][Phe(4-CN)][Bip]Y(Carboxymethyl)[NMeA][dL][Dab][Cha][Val(3-OH)]SC[Dab][Aun]-OH; thioether N-14) | 21.5
5 | Cc1ccc(C[C@@H]2NC(=O)[C@H](Cc3cccc(C)c3)NC(=O)[C@H](CC(=O)O)NC(=O)[C@H](Cc3ccc(C(=O)O)cc3)NC(=O)[C@H](CCN)NC(=O)CSC[C@@H](C(=O)N[C@@H](CCN)C(=O)NCCCCCCCCCCC(=O)O)NC(=O)[C@H](CO)NC(=O)[C@H](C(C)(C)O)NC(=O)[C@H](CC3CCCCC3)NC(=O)[C@H](CCN)NC(=O)[C@@H](CC(C)C)NC(=O)[C@H](C)N(C)C(=O)[C@H](Cc3ccc(OCC(=O)O)cc3)NC(=O)[C@H](Cc3ccc(-c4ccccc4)cc3)NC2=O)cc1 [Example 1301] ({CH2CO}-[Dab][Phe(4-COOH)]D[Phe(3-Me)][Phe(4-Me)][Bip]Y(Carboxymethyl)[NMeA][dL][Dab][Cha][Val(3-OH)]SC[Dab][Aun]-OH; thioether N-14) | 26.9
6 | Cc1cccc(C[C@@H]2NC(=O)[C@H](CC(=O)O)NC(=O)[C@H](Cc3ccc(C(=O)O)cc3)NC(=O)[C@H](CCN)NC(=O)CSC[C@@H](C(=O)N[C@@H](CCN)C(=O)NCCCCCCCCCCC(=O)O)NC(=O)[C@H](CO)NC(=O)[C@H](C(C)(C)O)NC(=O)[C@H](CC3CCCCC3)NC(=O)[C@H](CCN)NC(=O)[C@@H](CC(C)C)NC(=O)[C@H](C)N(C)C(=O)[C@H](Cc3ccc(OCC(=O)O)cc3)NC(=O)[C@H](Cc3ccc(-c4ccccc4)cc3)NC(=O)[C@H](C3CCCCC3)NC2=O)c1 [Example 1302] ({CH2CO}-[Dab][Phe(4-COOH)]D[Phe(3-Me)][Chg][Bip]Y(Carboxymethyl)[NMeA][dL][Dab][Cha][Val(3-OH)]SC[Dab][Aun]-OH; thioether N-14) | 17.6

Further compounds by falling IC50, results first:

Row | IC50 [nM] | SMILES
7 | 44.6 | Cc1cccc(C[C@@H]2NC(=O)[C@H](CC(=O)O)NC(=O)[C@H](Cc3cn(CC(=O)O)c4ccccc34)NC(=O)[C@H]([C@@H](C)O)NC(=O)CSC[C@@H](C(=O)N[C@@H](CCN)C(=O)NCCCCCCCCCCC(=O)O)NC(=O)[C@H]([C@@H](C)O)NC(=O)[C@H](C(C)C)NC(=O)[C@H](CC3CCCCC3)NC(=O)[C@H](CCN)NC(=O)[C@@H](CC(C)C)NC(=O)[C@H](C)N(C)C(=O)[C@H](Cc3ccc(OCC(=O)O)cc3)NC(=O)[C@H](Cc3ccc(-c4ccccc4)cc3)NC(=O)[C@H](Cc3ccc(OCC(=O)O)cc3)NC2=O)c1 [Example 1304] ({CH2CO}-T[Trp(1-CH2COOH)]D[Phe(3-Me)]Y(Carboxymethyl)[Bip]Y(Carboxymethyl)[NMeA][dL][Dab][Cha]VTC[Dab][Aun]-OH; thioether N-14)
8 | 41.3 | Cc1cccc(C[C@@H]2NC(=O)[C@H](CC(=O)O)NC(=O)[C@H](Cc3ccc(OCC(=O)O)cc3)NC(=O)[C@H](CCN)NC(=O)CSC[C@@H](C(=O)N[C@@H](CCN)C(=O)NCCCCCCCCCCC(=O)O)NC(=O)[C@H](CO)NC(=O)[C@H](C(C)(C)O)NC(=O)[C@H](CC3CCCCC3)NC(=O)[C@H](CCN)NC(=O)[C@@H](CC(C)C)NC(=O)[C@H](C)N(C)C(=O)[C@H](Cc3ccc(OCC(=O)O)cc3)NC(=O)[C@H](Cc3ccc(-c4ccccc4)cc3)NC(=O)[C@H](Cc3ccc(N)cc3)NC2=O)c1 [Example 1307] ({CH2CO}-[Dab]Y(Carboxymethyl)D[Phe(3-Me)][Phe(4-NH2)][Bip]Y(Carboxymethyl)[NMeA][dL][Dab][Cha][Val(3-OH)]SC[Dab][Aun]-OH; thioether N-14)
9 | 26.7 | CC(C)=C[C@@H]1NC(=O)[C@H](Cc2cccc(C)c2)NC(=O)[C@H](CC(=O)O)NC(=O)[C@H](Cc2ccc(C(=O)O)cc2)NC(=O)[C@H](CCN)NC(=O)CSC[C@@H](C(=O)N[C@@H](CCN)C(=O)NCCCCCCCCCCC(=O)O)NC(=O)[C@H](CO)NC(=O)[C@H](C(C)(C)O)NC(=O)[C@H](CC2CCCCC2)NC(=O)[C@H](CCN)NC(=O)[C@@H](CC(C)C)NC(=O)[C@H](C)N(C)C(=O)[C@H](Cc2ccc(OCC(=O)O)cc2)NC(=O)[C@H](Cc2ccc(-c3ccccc3)cc2)NC1=O [Example 1303] ({CH2CO}-[Dab][Phe(4-COOH)]D[Phe(3-Me)][X2][Bip]Y(Carboxymethyl)[NMeA][dL][Dab][Cha][Val(3-OH)]SC[Dab][Aun]-OH; thioether N-14)
10 | 24.8 | Cc1cccc(C[C@@H]2NC(=O)[C@H](CC(=O)O)NC(=O)[C@H](Cc3ccc(OCC(=O)O)cc3)NC(=O)[C@H](CCN)NC(=O)CSC[C@@H](C(=O)N[C@@H](CCN)C(=O)NCCCCCCCCCCC(=O)O)NC(=O)[C@H](CO)NC(=O)[C@H](C(C)(C)O)NC(=O)[C@H](CC3CCCCC3)NC(=O)[C@H](CCN)NC(=O)[C@@H](CC(C)C)NC(=O)[C@H](C)N(C)C(=O)[C@H](Cc3ccc(OCC(=O)O)cc3)NC(=O)[C@H](Cc3ccc(-c4ccccc4)cc3)NC(=O)[C@H](Cc3cccnc3)NC2=O)c1 [Example 1305] ({CH2CO}-[Dab]Y(Carboxymethyl)D[Phe(3-Me)][3Pal][Bip]Y(Carboxymethyl)[NMeA][dL][Dab][Cha][Val(3-OH)]SC[Dab][Aun]-OH; thioether N-14)
11 | 23.9 | Cc1cccc(C[C@@H]2NC(=O)[C@H](CC(=O)O)NC(=O)[C@H](Cc3ccc(OCC(=O)O)cc3)NC(=O)[C@H](CCN)NC(=O)CSC[C@@H](C(=O)N[C@@H](CCN)C(=O)NCCCCCCCCCCC(=O)O)NC(=O)[C@H](CO)NC(=O)[C@H](C(C)(C)O)NC(=O)[C@H](CC3CCCCC3)NC(=O)[C@H](CCN)NC(=O)[C@@H](CC(C)C)NC(=O)[C@H](C)N(C)C(=O)[C@H](Cc3ccc(OCC(=O)O)cc3)NC(=O)[C@H](Cc3ccc(-c4ccccc4)cc3)NC(=O)[C@H](Cc3cccc(C#N)c3)NC2=O)c1 [Example 1306] ({CH2CO}-[Dab]Y(Carboxymethyl)D[Phe(3-Me)][Phe(3-CN)][Bip]Y(Carboxymethyl)[NMeA][dL][Dab][Cha][Val(3-OH)]SC[Dab][Aun]-OH; thioether N-14)
12 | 11.6 | CC[C@H](C)[C@@H]1NC(=O)[C@H](Cc2cccc(C)c2)NC(=O)[C@H](CC(=O)O)NC(=O)[C@H](Cc2ccc(C(=O)O)cc2)NC(=O)[C@H](CCN)NC(=O)CSC[C@@H](C(=O)N[C@@H](CCN)C(=O)NCCCCCCCCCCC(=O)O)NC(=O)[C@H](CO)NC(=O)[C@H](C(C)(C)O)NC(=O)[C@H](CC2CCCCC2)NC(=O)[C@H](CCN)NC(=O)[C@@H](CC(C)C)NC(=O)[C@H](C)N(C)C(=O)[C@H](Cc2ccc(OCC(=O)O)cc2)NC(=O)[C@H](Cc2ccc(-c3ccccc3)cc2)NC1=O [Example 1299] ({CH2CO}-[Dab][Phe(4-COOH)]D[Phe(3-Me)]I[Bip]Y(Carboxymethyl)[NMeA][dL][Dab][Cha][Val(3-OH)]SC[Dab][Aun]-OH; thioether N-14)

— patent US20260070945A1, “MACROCYCLIC IMMUNOMODULATORS” (Bristol-Myers Squibb Company, priority 2022, published 2026)
